Assay results taken from patent publication US8097431B2 (priority 2004, dated 2012).

Tests used:
LexA-DBD:PR-LBD:VP16 = target: T1, LexA-DBD:PR-LBD:VP16 (Homo sapiens, UniProt P06401); experiment: yeast progesterone tripartite bioassay; type: cell-based; details: progesterone receptor tripartite
T1 construct: expressed in transfected cells; host or cells: Saccharomyces cerevisiae W303 diploid yARUP16 transformed with pARUP32 (yARUP49)
T1 sequence (P06401 with tags, fused parts or gaps): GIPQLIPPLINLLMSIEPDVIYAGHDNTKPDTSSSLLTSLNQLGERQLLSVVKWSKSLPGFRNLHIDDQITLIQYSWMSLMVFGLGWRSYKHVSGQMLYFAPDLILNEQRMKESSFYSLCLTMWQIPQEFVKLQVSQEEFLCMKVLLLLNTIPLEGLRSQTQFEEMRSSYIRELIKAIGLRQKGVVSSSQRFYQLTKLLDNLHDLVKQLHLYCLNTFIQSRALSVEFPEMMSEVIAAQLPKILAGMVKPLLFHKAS
Protocol: Yeast were inoculated from a plate into synthetic media lacking leucine, uracil and histidine supplemented with 2% dextrose. After 18 hr incubation at 30° C., cells were washed with synthetic media lacking leucine, uracil and histidine supplemented with glycerol and resuspended in glycerol media to an absorbance at 600 nm of 0.03. Cells were grown for 4 hr then 50 μL of cells were added to each well of a 96-well plate. 50 μl of steroid in phosphate buffered saline 0.5% BSA. Cells were grown at 30° C. in a shaking water bath for 18 hr. To detect β-galactosidase activity, 25 μl of cells and 25 μl of Beta-Glo (Promega, Madison Wis.) were transferred to a luminescent 96-well plate (Fisher, Pittsburgh, Pa.). After 30 min incubation at room temperature, the reaction mixture was read using Lumimark (Bio-Rad, Hercules, Calif.).

[1] = target: T2, progesterone tripartite system (Homo sapiens, UniProt P06401); experiment: progesterone bioactivity in serum of women on birth control (progesterone tripartite system); type: in vivo; details: women on fourth generation progestin
T2 construct: expressed in transfected cells; host or cells: Saccharomyces cerevisiae W303 diploid yARUP16 transformed with pARUP32 (yARUP49)
T2 sequence (P06401 with tags, fused parts or gaps): T1 sequence (P06401 with tags, fused parts or gaps)
Protocol: Serum samples were pre-treated by diluting with an equal volume of 0.9 mg/mL K2EDTA, (150 μl of serum was added to 150 μl of 0.9 mg/mL K2 EDTA), vortexed briefly and heated for 5 min at 72 C. Pre-treated serum was added to yeast expressing the androgen or progesterone tripartite, prepared as follows.
Yeast were inoculated from a frozen stock into synthetic media lacking leucine, uracil, and histidine supplemented with 2% dextrose. […] Twenty-five microliters of mid-log yeast were added to each well of a 384-well plate using a, BioMek 2000 (Beckman-Coulter). Serum samples were diluted with an equal volume of 0.9 mg/mL K2EDTA, (150 μL of serum was added to 150 μL of 0.9 mg/mL K2 EDTA), vortexed briefly and heated for 5 min at 72° C. Ten microliters of pre-treated sample was added to the plate. Ten microliters of serially diluted compound in H2O was incubated with 25 μL of yeast (Thermolabsystems). The plate was covered with Aeroseal sealing film (Research Products International, Palatine Ill.), and placed on a plate shaker for 5 min and the plate was incubated for 17-18 hr at 28° C. in a humidified incubator. After overnight incubation, the plate was shaken for 5 min. […] After about 2-hr incubation at room temperature, the β-galactosidase in the reaction mixture was determined using Luminskan luminometer (Thermolabsystems). […]

SMILES | levels detectable by this method (LexA-DBD:PR-LBD:VP16) | serum progesterone levels of women on birth control [1]
CC(=O)[C@H]1CC[C@H]2[C@@H]3CCC4=CC(=O)CC[C@]4(C)[C@H]3CC[C@]12C [Progesterone, progesterone] | 1000-100,000 pg/ml | 
C[C@]12CCC(=O)C=C1[C@@H]1C[C@@H]1[C@H]1[C@@H]3[C@@H]4C[C@@H]4[C@@]4(CCC(=O)O4)[C@@]3(C)CC[C@@H]12 [drospireone] |  | lower
